pIC50: −log10 of the molar value.
System: not given
Test: not given
Conditions: not given
Compound O=C(NCc1ccc(F)cc1-n1cncn1)c1nc2n(c(=O)c1O)CCN2CCO [Example 31, N-(4-Fluoro-2-(1H-1,2,4-triazol-1-yl)benzyl)-6-hydroxy-(2-hydroxyethyl)-5-oxo-1,2,3,5-tetrahydroimidazo[1,2-a]pyrimidine-7-carboxamide] has a melting point of 220 to 222 °C. For CCCCN1CCn2c1nc(C(=O)NCc1ccc(F)cc1C(=O)NC)c(O)c2=O [Example 13, N-(4-Fluoro-2-(methylcarbamoyl)benzyl)-1-butyl-6-hydroxy-5-oxo-1,2,3,5-tetrahydroimidazo[1,2-a]pyrimidine-7-carboxamide], the melting point was 175 to 177 °C. For Cc1ncnn1-c1cc(F)ccc1CNC(=O)c1nc2n(c(=O)c1O)CCN2C(C)C [Example 10, N-(4-Fluoro-2-(5-methyl-1H-1,2,4-triazol-1-yl)benzyl)-6-hydroxy-1-isopropyl-5-oxo-1,2,3,5-tetrahydroimidazo[1,2-a]pyrimidine-7-carboxamide], the melting point was 212 °C. In the case of CNC(=O)c1cc(F)ccc1CNC(=O)c1nc2n(c(=O)c1O)CCN2C(C)C [Example 6, N-(4-Fluoro-2-(methylcarbamoyl)benzyl)-6-hydroxy-1-isopropyl-5-oxo-1,2,3,5-tetrahydroimidazo[1,2-a]pyrimidine-7-carboxamide], the melting point was 205 °C (dec.). O=C(NCc1ccc(F)cc1)c1nc2n(c(=O)c1O)CCN2Cc1ccccc1 [Example 16, N-(4-Fluorobenzyl)-1-benzyl-6-hydroxy-5-oxo-1,2,3,5-tetrahydroimidazo[1,2-a]pyrimidine-7-carboxamide] showed a melting point of 225 °C. Cc1cc(CNC(=O)c2nc3n(c(=O)c2O)CCN3C)ccc1F [Example 2, N-(4-Fluoro-3-methylbenzyl)-6-hydroxy-1-methyl-5-oxo-1,2,3,5-tetrahydroimidazo[1,2-a]pyrimidine-7-carboxamide] showed a melting point of 187 to 189 °C. For O=C(NCc1ccc(F)cc1)c1nc2n(c(=O)c1O)CCN2CCO [Example 30, N-(4-Fluorobenzyl)-6-hydroxy-1-(2-hydroxyethyl)-5-oxo-1,2,3,5-tetrahydroimidazo[1,2-a]pyrimidine-7-carboxamide], the melting point was 203 °C.

Target: T1, HIV-integrase (Human immunodeficiency virus type 1 group M subtype B, UniProt P12497)
T1 construct: Recombinant integrase (0.26 ng) was incubated with the beads
Test: HIV-Integrase Inhibition Activity (SPA strand transfer assay)
Type: biochemical
Conditions: recombinant integrase, biotin labeled substrate DNA on SPA beads, P33 labeled target DNA; read-out: Activity (IC50 class, HIV-integrase inhibition)
Protocol: HIV-Integrase Inhibition Activity. To evaluate in-vitro activity against HIV-integrase, 5 pmole of biotin labeled substrate DNA was bound to 100 μg of Streptavidin coated PVT SPA beads (Amersham Pharmacia Biotech). Recombinant integrase (0.26 ng) was incubated with the beads for 90 min at 37° C. Unbound enzyme was removed by washing the complex followed by addition of inhibitors and 0.1 fmol of P33 labeled target DNA. The reaction was stopped by adding EDTA to a final concentration of 10 mM. Samples were counted in TopCountNXT (Packard) and the CPM was used as a measure of integration. The reaction condition was as described in A. Engelman and R. Craigie, J. Virol. 69, 5908-5911 (1995). The sequences of substrate and target DNA were described in Nucleic Acid Research 22,1121-1122 (1994). Activity equal to A refers to a compound having IC50=0.005 to 0.010 μM while B and C denote compounds having IC50=0.010 to 0.030 μM and IC50>0.030 μM respectively.
Work on CCCCN1CCn2c1nc(C(=O)NCc1ccc(F)c(C)c1)c(O)c2=O [Example 12, N-(4-Fluoro-3-methylbenzyl)-1-butyl-6-hydroxy-5-oxo-1,2,3,5-tetrahydroimidazo[1,2-a]pyrimidine-7-carboxamide] yielded a pIC50 of 7.52 to 8.00. With CNC(=O)c1cc(F)ccc1CNC(=O)c1nc2n(c(=O)c1O)CCN2c1ccccc1 [Example 22, N-(4-Fluoro-2-(methylcarbamoyl)benzyl)-6-hydroxy-5-oxo-1-phenyl-1,2,3,5-tetrahydroimidazo[1,2-a]pyrimidine-7-carboxamide] the pIC50 was 7.52 to 8.00. For COCCN1CCn2c1nc(C(=O)NCc1ccc(F)cc1-n1cnc(C)n1)c(O)c2=O [Example 39], the pIC50 was < 7.52. Work on O=C(NCc1ccc(F)cc1-n1cncn1)c1nc2n(c(=O)c1O)CCN2CCO [Example 31, N-(4-Fluoro-2-(1H-1,2,4-triazol-1-yl)benzyl)-6-hydroxy-(2-hydroxyethyl)-5-oxo-1,2,3,5-tetrahydroimidazo[1,2-a]pyrimidine-7-carboxamide] yielded a pIC50 of 7.52 to 8.00. Compound CCCCN1CCn2c1nc(C(=O)NCc1ccc(F)cc1C(=O)NC)c(O)c2=O [Example 13, N-(4-Fluoro-2-(methylcarbamoyl)benzyl)-1-butyl-6-hydroxy-5-oxo-1,2,3,5-tetrahydroimidazo[1,2-a]pyrimidine-7-carboxamide] has a pIC50 of 7.52 to 8.00. For CN(C)S(=O)(=O)c1cc(F)ccc1CNC(=O)c1nc2n(c(=O)c1O)CCN2C1CCCCC1 [Example 35], the pIC50 was 7.52 to 8.00. In the case of Cc1ncnn1-c1cc(F)ccc1CNC(=O)c1nc2n(c(=O)c1O)CCN2C(C)C [Example 10, N-(4-Fluoro-2-(5-methyl-1H-1,2,4-triazol-1-yl)benzyl)-6-hydroxy-1-isopropyl-5-oxo-1,2,3,5-tetrahydroimidazo[1,2-a]pyrimidine-7-carboxamide], the pIC50 was < 7.52. Work on CNC(=O)c1cc(F)ccc1CNC(=O)c1nc2n(c(=O)c1O)CCN2C(C)C [Example 6, N-(4-Fluoro-2-(methylcarbamoyl)benzyl)-6-hydroxy-1-isopropyl-5-oxo-1,2,3,5-tetrahydroimidazo[1,2-a]pyrimidine-7-carboxamide] yielded a pIC50 of 7.52 to 8.00. In the case of CN(C)S(=O)(=O)c1cc(F)ccc1CNC(=O)c1nc2n(c(=O)c1O)CCN2c1ccccc1 [Example 26, N-(4-Fluoro-2-(N,N-dimethylsulfamoyl)benzyl)-6-hydroxy-5-oxo-1-phenyl-1,2,3,5-tetrahydroimidazo[1,2-a]pyrimidine-7-carboxamide], the pIC50 was 7.52 to 8.00. CCCCN1CCn2c1nc(C(=O)NCc1ccc(F)cc1S(=O)(=O)N(C)C)c(O)c2=O [Example 14, N-(4-Fluoro-2-(N,N-dimethylsulfamoyl)benzyl)-1-butyl-6-hydroxy-5-oxo-1,2,3,5-tetrahydroimidazo[1,2-a]pyrimidine-7-carboxamide] gave a pIC50 of 7.52 to 8.00. Work on O=C(NCc1ccc(F)cc1-n1cncn1)c1nc2n(c(=O)c1O)CCN2c1ccccc1 [Example 23, N-(4-Fluoro-2-(1H-1,2,4-triazol-1-yl)benzyl)-6-hydroxy-5-oxo-1-phenyl-1,2,3,5-tetrahydroimidazo[1,2-a]pyrimidine-7-carboxamide] yielded a pIC50 of 8.00 to 8.30. With O=C(NCc1ccc(F)cc1)c1nc2n(c(=O)c1O)CCN2C1CCCCC1 [Example 32] the pIC50 was 8.00 to 8.30. For O=C(NCc1ccc(F)cc1)c1nc2n(c(=O)c1O)CCN2Cc1ccccc1 [Example 16, N-(4-Fluorobenzyl)-1-benzyl-6-hydroxy-5-oxo-1,2,3,5-tetrahydroimidazo[1,2-a]pyrimidine-7-carboxamide], the pIC50 was < 7.52. Cc1ncnn1-c1cc(F)ccc1CNC(=O)c1nc2n(c(=O)c1O)CCN2c1ccccc1 [Example 25, N-(4-Fluoro-2-(5-methyl-1H-1,2,4-triazol-1-yl)benzyl)-6-hydroxy-5-oxo-1-phenyl-1,2,3,5-tetrahydroimidazo[1,2-a]pyrimidine-7-carboxamide] gave a pIC50 of 7.52 to 8.00. For CS(=O)(=O)c1cc(F)ccc1CNC(=O)c1nc2n(c(=O)c1O)CCN2c1ccccc1 [Example 40], the pIC50 was 8.00 to 8.30. For Cc1cc(CNC(=O)c2nc3n(c(=O)c2O)CCN3C)ccc1F [Example 2, N-(4-Fluoro-3-methylbenzyl)-6-hydroxy-1-methyl-5-oxo-1,2,3,5-tetrahydroimidazo[1,2-a]pyrimidine-7-carboxamide], the pIC50 was 7.52 to 8.00. With Cc1cc(CNC(=O)c2nc3n(c(=O)c2O)CCN3c2ccccc2)ccc1F [Example 21, N-(4-Fluoro-3-methylbenzyl)-6-hydroxy-5-oxo-1-phenyl-1,2,3,5-tetrahydroimidazo[1,2-a]pyrimidine-7-carboxamide] the pIC50 was 8.00 to 8.30. O=C(NCc1ccc(F)cc1)c1nc2n(c(=O)c1O)CCN2CCO [Example 30, N-(4-Fluorobenzyl)-6-hydroxy-1-(2-hydroxyethyl)-5-oxo-1,2,3,5-tetrahydroimidazo[1,2-a]pyrimidine-7-carboxamide] gave a pIC50 of 7.52 to 8.00. Compound CC(C)N1CCn2c1nc(C(=O)NCc1ccc(F)cc1S(=O)(=O)N(C)C)c(O)c2=O [Example 8, N-(4-Fluoro-2-(N,N-dimethylsulfamoyl)benzyl)-6-hydroxy-1-isopropyl-5-oxo-1,2,3,5-tetrahydroimidazo[1,2-a]pyrimidine-7-carboxamide] has a pIC50 of 8.00 to 8.30. O=C(NCc1ccc(F)cc1N1CCCC1=O)c1nc2n(c(=O)c1O)CCN2c1ccccc1 [Example 27, N-(4-Fluoro-2-(2-oxopyrrolidin-1-yl)benzyl)-6-hydroxy-5-oxo-1-phenyl-1,2,3,5-tetrahydroimidazo[1,2-a]pyrimidine-7-carboxamide] gave a pIC50 of 7.52 to 8.00. O=C(NCc1ccc(F)cc1N1CCC1=O)c1nc2n(c(=O)c1O)CCN2c1ccccc1 [Example 28, N-(4-Fluoro-2-(2-oxoazetidin-1-yl)benzyl)-6-hydroxy-5-oxo-1-phenyl-1,2,3,5-tetrahydroimidazo[1,2-a]pyrimidine-7-carboxamide] gave a pIC50 of 8.00 to 8.30. CNC(=O)c1cc(F)ccc1CNC(=O)c1nc2n(c(=O)c1O)CCN2C [Example 3, N-(4-Fluoro-2-(methylcarbamoyl)benzyl)-6-hydroxy-1-methyl-5-oxo-1,2,3,5-tetrahydroimidazo[1,2-a]pyrimidine-7-carboxamide] showed a pIC50 of 7.52 to 8.00. Cc1cc(CNC(=O)c2nc3n(c(=O)c2O)CCN3Cc2ccccc2)ccc1F [Example 17, N-(4-Fluoro-3-methylbenzyl)-1-benzyl-6-hydroxy-5-oxo-1,2,3,5-tetrahydroimidazo[1,2-a]pyrimidine-7-carboxamide] showed a pIC50 of 7.52 to 8.00. For COCCN1CCn2c1nc(C(=O)NCc1ccc(F)cc1-n1cncn1)c(O)c2=O [Example 37], the pIC50 was 7.52 to 8.00. Cc1cc(CNC(=O)c2nc3n(c(=O)c2O)CCN3C(C)C)ccc1F [Example 5, N-(4-Fluoro-3-methylbenzyl)-6-hydroxy-1-isopropyl-5-oxo-1,2,3,5-tetrahydroimidazo[1,2-a]pyrimidine-7-carboxamide] gave a pIC50 of 7.52 to 8.00. Work on CNC(=O)c1cc(F)ccc1CNC(=O)c1nc2n(c(=O)c1O)CCN2CCOC [Example 36] yielded a pIC50 of 7.52 to 8.00. With O=C(NCc1ccc(F)cc1)c1nc2n(c(=O)c1O)CCN2c1ccccc1 [Example 20, N-(4-Fluorobenzyl)-6-hydroxy-5-oxo-1-phenyl-1,2,3,5-tetrahydroimidazo[1,2-a]pyrimidine-7-carboxamide] the pIC50 was 8.00 to 8.30. For CC(C)N1CCn2c1nc(C(=O)NCc1ccc(F)cc1-n1cncn1)c(O)c2=O [Example 7, N-(4-Fluoro-2-(1H-1,2,4-triazol-1-yl)benzyl)-6-hydroxy-1-isopropyl-5-oxo-1,2,3,5-tetrahydroimidazo[1,2-a]pyrimidine-7-carboxamide], the pIC50 was 7.52 to 8.00. Cc1ncn(-c2cc(F)ccc2CNC(=O)c2nc3n(c(=O)c2O)CCN3C(C)C)n1 [Example 9, N-(4-Fluoro-2-(3-methyl-1H-1,2,4-triazol-1-yl)benzyl)-6-hydroxy-1-isopropyl-5-oxo-1,2,3,5-tetrahydroimidazo[1,2-a]pyrimidine-7-carboxamide] gave a pIC50 of 7.52 to 8.00. O=C(NCc1ccc(F)cc1-n1cncn1)c1nc2n(c(=O)c1O)CCN2C1CCCCC1 [Example 34] showed a pIC50 of 8.00 to 8.30. CC(C)N1CCn2c1nc(C(=O)NCc1ccc(F)cc1)c(O)c2=O [Example 4, N-(4-Fluorobenzyl)-6-hydroxy-1-isopropyl-5-oxo-1,2,3,5-tetrahydroimidazo[1,2-a]pyrimidine-7-carboxamide] gave a pIC50 of 7.52 to 8.00. CCCCN1CCn2c1nc(C(=O)NCc1ccc(F)cc1-n1cncn1)c(O)c2=O [Example 41] gave a pIC50 of 7.52 to 8.00. In the case of COCCN1CCn2c1nc(C(=O)NCc1ccc(F)cc1S(=O)(=O)N(C)C)c(O)c2=O [Example 38], the pIC50 was < 7.52. Cc1ncn(-c2cc(F)ccc2CNC(=O)c2nc3n(c(=O)c2O)CCN3c2ccccc2)n1 [Example 24, N-(4-Fluoro-2-(3-methyl-1H-1,2,4-triazol-1-yl)benzyl)-6-hydroxy-5-oxo-1-phenyl-1,2,3,5-tetrahydroimidazo[1,2-a]pyrimidine-7-carboxamide] showed a pIC50 of 8.00 to 8.30. Work on CCCCN1CCn2c1nc(C(=O)NCc1ccc(F)cc1)c(O)c2=O [Example 11, N-(4-Fluorobenzyl)-1-butyl-6-hydroxy-5-oxo-1,2,3,5-tetrahydroimidazo[1,2-a]pyrimidine-7-carboxamide] yielded a pIC50 of 8.00 to 8.30. Compound Cc1cc(CNC(=O)c2nc3n(c(=O)c2O)CCN3C2CCCCC2)ccc1F [Example 33] has a pIC50 of 8.00 to 8.30.

— patent publication US7494984B2, “Substituted imidazo[1,2-a]pyrimidines as HIV viral DNA integrase inhibitors” (priority 2005, dated 2009)
